Test results taken from patent US9371294B2, “Cycloalkenyl aryl derivatives for CETP inhibitor” (CHONG KUN DANG PHARMACEUTICAL CORP., priority 2011, dated 2016).

Molecular target: T1, cholesteryl ester transfer protein (Homo sapiens, UniProt P11597)
T1 construct: As a source of cholesteryl ester transfer protein, plasma from healthy humans was used; from tissue; host or cells: plasma from healthy humans
T1 sequence (P11597 18-493): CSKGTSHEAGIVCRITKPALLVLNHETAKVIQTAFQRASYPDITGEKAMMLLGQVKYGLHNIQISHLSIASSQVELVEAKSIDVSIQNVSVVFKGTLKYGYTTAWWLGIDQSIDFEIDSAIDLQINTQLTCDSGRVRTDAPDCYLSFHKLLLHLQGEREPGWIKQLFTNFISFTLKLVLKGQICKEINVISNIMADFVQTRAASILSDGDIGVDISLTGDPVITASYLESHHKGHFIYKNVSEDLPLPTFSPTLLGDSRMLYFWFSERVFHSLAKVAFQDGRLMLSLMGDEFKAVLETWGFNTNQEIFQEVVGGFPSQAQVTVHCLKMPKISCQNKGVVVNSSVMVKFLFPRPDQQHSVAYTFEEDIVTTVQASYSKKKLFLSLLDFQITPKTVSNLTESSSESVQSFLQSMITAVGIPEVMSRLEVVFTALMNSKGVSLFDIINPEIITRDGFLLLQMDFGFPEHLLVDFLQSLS
Assay: In vitro test for the ability to inhibit cholesteryl ester transfer
Assay type: biochemical
Conditions: [3H]-cholesteryl oleate transfer from rHDL-agarose to LDL; human plasma as CETP source; 37° C.; 16-10000 nM, duplicate
From the text: In Vitro Test for the Ability to Inhibit Cholesteryl Ester Transfer
1. Preparation of Cholesteryl Ester Donor
In order to prepare a cholesteryl ester donor to be used in the test, a radiolabeled recombinant HDL containing [^3H]-cholesteryl oleate (GE healthcare, TRK886, 3.5 μCi/mg of apoA-1) and apoA-1 was synthesized. Then, rHDL-agarose obtained by immobilizing the recombinant HDL with CNBr-activated Sepharose 4B resin (Amersham Biosciences, Sweden) was used in the test.
2. Cholesteryl Ester Transfer Test
As a source of cholesteryl ester transfer protein, plasma from healthy humans was used, and as cholesteryl ester receptor, LDL from healthy humans was used. Each of test compounds was added to be final concentrations of 16, 80, 400, 2000 and 10000 nM and tested in duplicate. In order to test cholesteryl ester transfer, 20 μl of plasma, 50 μl of LDL (0.25 mg/ml) and 50 μl of rHDL-agarose (0.25 mg/ml) were mixed with each other, and a solution of each test compound was added thereto and reacted thereto at 37° C. Then, the reaction solution was centrifuged at 4° C. for 3 minutes, thereby the reaction was stopped. 150 μl of the supernatant was transferred into a 96-well plate for radioactivity measurement, and the radioactivity thereof was measured with a beta-ray detector.
3. Statistical Processing
The ratio of [^3H]-cholesteryl oleate transferred from HDL to LDL was determined, and based on the determined ratio, the IC50 value of each compound was determined using GraphPad Prism 5.0.

Compound	IC50
COc1ccc(N(C)C(=O)CC(F)(F)F)cc1C1=C(CN2C(=O)O[C@H](c3cc(C(F)(F)F)cc(C(F)(F)F)c3)[C@@H]2C)CC(C)(C)CC1 [Compound 130, N-(3-(2-(((4S,5R)-5-(3,5-bis(trifluoromethyl)phenyl)-4-methyl-2-oxooxazolidin-3-yl)methyl)-4,4-dimethylcyclohex-1-enyl)-4-methoxyphenyl)-3,3,3-trifluoro-N-methylpropanamide]	20 nM
COc1ccc(NS(=O)(=O)C(F)(F)F)cc1C1=C(CN2C(=O)O[C@H](c3cc(C(F)(F)F)cc(C(F)(F)F)c3)[C@@H]2C)CC(C)(C)CC1 [Compound 137, N-(3-(2-(((4S,5R)-5-(3,5-bis(trifluoromethyl)phenyl)-4-methyl-2-oxooxazolidin-3-yl)methyl)-4,4-dimethylcyclohex-1-enyl)-4-methoxyphenyl)trifluoromethanesulfonamide]	80 nM
COc1ccc(C(O)(C(F)(F)F)C(F)(F)F)cc1C1=C(CN2C(=O)O[C@H](c3cc(C(F)(F)F)cc(C(F)(F)F)c3)[C@@H]2C)CC(C)(C)CC1 [Compound 181, (4S,5R)-5-(3,5-bis(trifluoromethyl)phenyl)-3-((2-(5-(1,1,1,3,3,3-hexafluoro-2-hydroxypropan-2-yl)-2-methoxyphenyl)-5,5-dimethylcyclohex-1-enyl)methyl)-4-methyloxazolidin-2-one]	50 nM
COc1ccc(C(OC)(C(F)(F)F)C(F)(F)F)cc1C1=C(CN2C(=O)O[C@H](c3cc(C(F)(F)F)cc(C(F)(F)F)c3)[C@@H]2C)CC(C)(C)CC1 [Compound 182, (4S,5R)-5-(3,5-bis(trifluoromethyl)phenyl)-3-((2-(5-(1,1,1,3,3,3-hexafluoro-2-methoxypropan-2-yl)-2-methoxyphenyl)-5,5-dimethylcyclohex-1-enyl)methyl)-4-methyloxazolidin-2-one]	50 nM
COc1cc(F)c(C(C)=O)cc1C1=C(CN2C(=O)O[C@H](c3cc(C(F)(F)F)cc(C(F)(F)F)c3)[C@@H]2C)CC(C)(C)CC1 [Compound 184, (4S,5R)-3-((2-(5-acetyl-4-fluoro-2-methoxyphenyl)-5,5-dimethylcyclohex-1-enyl)methyl)-5-(3,5-bis(trifluoromethyl)phenyl)-4-methyloxazolidin-2-one]	20 nM
COc1ccc(C2=NCCO2)cc1C1=C(CN2C(=O)O[C@H](c3cc(C(F)(F)F)cc(C(F)(F)F)c3)[C@@H]2C)CC(C)(C)CC1 [Compound 185, (4S,5R)-5-(3,5-bis(trifluoromethyl)phenyl)-3-((2-(5-(4,5-dihydrooxazol-2-yl)-2-methoxyphenyl)-5,5-dimethylcyclohex-1-enyl)methyl)-4-methyloxazolidin-2-one]	180 nM
COc1ccc(C2=N[C@H](C(C)C)CO2)cc1C1=C(CN2C(=O)O[C@H](c3cc(C(F)(F)F)cc(C(F)(F)F)c3)[C@@H]2C)CC(C)(C)CC1 [Compound 188, (4S,5R)-5-(3,5-bis(trifluoromethyl)phenyl)-3-((2-(5-((R)-4-isopropyl-4,5-dihydrooxazol-2-yl)-2-methoxyphenyl)-5,5-dimethylcyclohex-1-enyl)methyl)-4-methyloxazolidin-2-one]	120 nM
COc1ccc(C2(C#N)CC2)cc1C1=C(CN2C(=O)O[C@H](c3cc(C(F)(F)F)cc(C(F)(F)F)c3)[C@@H]2C)CC(C)(C)CC1 [Compound 189, 1-(3-(2-(((4S,5R)-5-(3,5-bis(trifluoromethyl)phenyl)-4-methyl-2-oxooxazolidin-3-yl)methyl)-4,4-dimethylcyclohex-1-enyl)-4-methoxyphenyl)cyclopropanecarbonitrile]	20 nM
COc1ccc(C2(C(N)=O)CC2)cc1C1=C(CN2C(=O)O[C@H](c3cc(C(F)(F)F)cc(C(F)(F)F)c3)[C@@H]2C)CC(C)(C)CC1 [Compound 190, 1-(3-(2-(((4S,5R)-5-(3,5-bis(trifluoromethyl)phenyl)-4-methyl-2-oxooxazolidin-3-yl)methyl)-4,4-dimethylcyclohex-1-enyl)-4-methoxyphenyl)cyclopropanecarboxamide]	10 nM
COc1cc(F)c(C(=O)C(F)(F)F)cc1C1=C(CN2C(=O)O[C@H](c3cc(C(F)(F)F)cc(C(F)(F)F)c3)[C@@H]2C)CC(C)(C)CC1 [Compound 191, (4S,5R)-5-(3,5-bis(trifluoromethyl)phenyl)-3-((2-(4-fluoro-2-methoxy-5-(2,2,2-trifluoroacetyl)phenyl)-5,5-dimethylcyclohex-1-enyl)methyl)-4-methyloxazolidin-2-one]	90 nM
COc1cc(F)c(C(=O)C2CC2)cc1C1=C(CN2C(=O)O[C@H](c3cc(C(F)(F)F)cc(C(F)(F)F)c3)[C@@H]2C)CC(C)(C)CC1 [Compound 192, (4S,5R)-5-(3,5-bis(trifluoromethyl)phenyl)-3-((2-(5-(cyclopropanecarbonyl)-4-fluoro-2-methoxyphenyl)-5,5-dimethylcyclohex-1-enyl)methyl)-4-methyloxazolidin-2-one]	60 nM
COc1ccc(C(F)(F)F)cc1C1=C(CN2C(=O)O[C@H](c3cc(C(F)(F)F)cc(C(F)(F)F)c3)[C@@H]2C)CC(C(F)(F)F)CC1 (stereo partly drawn) [Compound 193, (4S,5R)-5-(3,5-bis(trifluoromethyl)phenyl)-3-((2-(2-methoxy-5-(trifluoromethyl)phenyl)-5-(trifluoromethyl)cyclohex-1-enyl)methyl)-4-methyloxazolidin-2-one]	40 nM
COc1ccc([N+](=O)[O-])cc1C1=C(CN2C(=O)O[C@H](c3cc(C(F)(F)F)cc(C(F)(F)F)c3)[C@@H]2C)CC(C(F)(F)F)CC1 (stereo partly drawn) [Compound 194, (4S,5R)-5-(3,5-bis(trifluoromethyl)phenyl)-3-((2-(2-methoxy-5-nitrophenyl)-5-(trifluoromethyl)cyclohex-1-enyl)methyl)-4-methyloxazolidin-2-one]	100 nM
COc1ccc(N)cc1C1=C(CN2C(=O)O[C@H](c3cc(C(F)(F)F)cc(C(F)(F)F)c3)[C@@H]2C)CC(C(F)(F)F)CC1 (stereo partly drawn) [Compound 195, (4S,5R)-3-((2-(5-amino-2-methoxyphenyl)-5-(trifluoromethyl)cyclohex-1-enyl)methyl)-5-(3,5-bis(trifluoromethyl)phenyl)-4-methyloxazolidin-2-one]	840 nM
COc1ccc(NC(C)=O)cc1C1=C(CN2C(=O)O[C@H](c3cc(C(F)(F)F)cc(C(F)(F)F)c3)[C@@H]2C)CC(C(F)(F)F)CC1 (stereo partly drawn) [Compound 196, N-(3-(2-(((4S,5R)-5-(3,5-bis(trifluoromethyl)phenyl)-4-methyl-2-oxooxazolidin-3-yl)methyl)-4-(trifluoromethyl)cyclohex-1-enyl)-4-methoxyphenyl)acetamide]	490 nM
COc1cc(C(F)(F)F)c(N(C)S(=O)(=O)C(F)(F)F)cc1C1=C(CN2C(=O)O[C@H](c3cc(C(F)(F)F)cc(C(F)(F)F)c3)[C@@H]2C)CC(C)(C)CC1 [Compound 209, N-(5-(2-(((4S,5R)-5-(3,5-bis(trifluoromethyl)phenyl)-4-methyl-2-oxooxazolidin-3-yl)methyl)-4,4-dimethylcyclohex-1-enyl)-4-methoxy-2-(trifluoromethyl)phenyl)trifluoro-N-methylmethanesulfonamide]	10 nM
COc1cc(C(F)(F)F)c(N(C)C(C)=O)cc1C1=C(CN2C(=O)O[C@H](c3cc(C(F)(F)F)cc(C(F)(F)F)c3)[C@@H]2C)CC(C)(C)CC1 [Compound 210, N-(5-(2-(((4S,5R)-5-(3,5-bis(trifluoromethyl)phenyl)-4-methyl-2-oxooxazolidin-3-yl)methyl)-4,4-dimethylcyclohex-1-enyl)-4-methoxy-2-(trifluoromethyl)phenyl)-N-methylacetamide]	8 nM
COc1ccc(N(C)c2nc(C(F)(F)F)cs2)cc1C1=C(CN2C(=O)O[C@H](c3cc(C(F)(F)F)cc(C(F)(F)F)c3)[C@@H]2C)CC(C)(C)CC1 [Compound 212, (4S,5R)-5-(3,5-bis(trifluoromethyl)phenyl)-3-((2-(2-methoxy-5-(methyl(4-(trifluoromethyl)thiazol-2-yl)amino)phenyl)-5,5-dimethylcyclohex-1-enyl)methyl)-4-methyloxazolidin-2-one]	80 nM
COc1cc(F)c(N(C)C(C)=O)cc1C1=C(CN2C(=O)O[C@H](c3cc(C(F)(F)F)cc(C(F)(F)F)c3)[C@@H]2C)CC(C)(C)CC1 [Compound 215, N-(5-(2-(((4S,5R)-5-(3,5-bis(trifluoromethyl)phenyl)-4-methyl-2-oxooxazolidin-3-yl)methyl)-4,4-dimethylcyclohex-1-enyl)-2-fluoro-4-methoxyphenyl)-N-methylacetamide]	20 nM
